{"source": "paper PMC12320299", "about": "(Chemical Science, 2025)", "system": "SW480 cancer cells", "experiment": "Proteome profiling of compound-treated SW480 cancer cells (24 h, approx. IC50, CYT and NE fractions)", "format": "cell-based, human", "experimental": "To gain insight into potential modes of action and derive structure–activity relationships on a molecular level, proteomic profiling experiments were carried out based on label-free quantification (LFQ) by nano-liquid chromatography tandem mass spectrometry (nLC-MS/MS). […] Six replicates were used per condition. The perturbations were evaluated at subcellular resolution by fractionating cells into cytoplasmic (CYT) and nuclear (NE) protein fractions. Those have been separately proteolytically digested and analysed (Fig. 3A). The perturbations with the 3-Et-NQ and 3-Morph-NQ complexes were performed against their respective solvent-treated controls (CON), yielding a total of 72 samples. […] Statistical significance of individual protein regulations was calculated by multiple testing-corrected P-values based on 5% false discovery rate (FDR = 0.05 and S0 = 0.1).\nThe position of each group represents the summed fold-changes of the individual proteins in the group according to the subcellular space, i.e., CYT and NE fractions, while the size represents the number of proteins in each group. […]\nProteome profiling of compound-treated SW480 cancer cells […]\ncells per well and left to adhere in complete cell culture medium. After 24 h, the medium was exchanged with fresh complete medium (DMSO mock control) or fresh medium containing […]\nsolution in DMSO, respectively) and incubated for another 24 h. Each condition was carried out in hexuplicates. The cells were processed according to a nucleocytoplasmic fractionation protocol as previously described.3 All steps were performed on ice. The medium was removed, and the cells were washed twice with 1×PBS (phosphate buffered saline, 3 mL). Then, PBS was thoroughly removed. Isotonic lysis buffer (10 mM HEPES, 10 mM NaCl, 3.5 mM MgCl2, 1 mM EGTA, 0.25 M Sucrose, 0.5% Triton X-100) containing protease inhibitors (1% PMSF, Sigma, and 1% protease and phosphatase inhibitor cocktail, Roche) was added to the flasks, the cells were scraped off and transferred into labelled 15 mL Falcon tubes. The cellular membrane was ruptured using shear stress by pressing the cell suspension through a syringe 9–12 times. Membrane rupture with intact nuclei was monitored under a microscope. After centrifugation (960 g, 5 min), the supernatant containing the cytoplasmic (CYT) proteins was transferred into new tubes containing ice-cold ethanol (1 : 5, HPLC grade) and precipitated […]\novernight at –20 °C. The pellet containing the nuclei was incubated with a hypertonic solution (10 mM Tris-HCl, 1 mM EDTA and 0.5 M NaCl) and subsequently diluted 1:10 with NP-40 buffer (10 mm Tris-HCl, 1 mm EDTA and 0.5% Triton X-100) containing protease inhibitors (1% PMSF, Sigma, and 1% protease and phosphatase inhibitor cocktail, Roche). After centrifugation (960 g, 5 min), the soluble nuclear (NE) proteins were also transferred into new tubes containing ice-cold ethanol (1 : 5, HPLC grade) and precipitated overnight at –20 °C.\nThe precipitated proteins were finally pelleted by centrifugation (5000 g, 30 min, 4 °C), the solution was decanted and the pellet dried under vacuum.", "data": [{"smiles": "Cc1ccc(C(C)C)cc1.O=C1C(CN2CCOCC2)=C2[O][Ru][O]C2(n2cccn2)c2ccccc21", "note": "(stereo not drawn) [Compound 1b]", "values": [{"measurement": "N° significantly regulated proteins, Total", "setting": "CYT and NE", "result": 1498}, {"measurement": "GO BP Cell cycle, summed fold-changes", "setting": "CYT fraction", "result": -2.0}, {"measurement": "GO BP Cell division, summed fold-changes", "setting": "CYT fraction", "result": 1.8}, {"measurement": "GO BP Chromatin organization, summed fold-changes", "setting": "CYT fraction", "result": -9.6}, {"measurement": "GO BP DNA damage response, summed fold-changes", "setting": "CYT fraction", "result": -1.3}, {"measurement": "GO BP DNA repair, summed fold-changes", "setting": "CYT fraction", "result": -5.7}, {"measurement": "GO BP DNA replication, summed fold-changes", "setting": "CYT fraction", "result": -0.75}, {"measurement": "GO BP Intracellular protein transport, summed fold-changes", "setting": "CYT fraction", "result": -1.2}, {"measurement": "GO BP Mitotic cytokinesis, summed fold-changes", "setting": "CYT fraction", "result": 0.635}, {"measurement": "GO BP Negative regulation of DNA-templated transcription, summed fold-changes", "setting": "CYT fraction", "result": -4.7}, {"measurement": "GO BP Nucleocytoplasmic transport, summed fold-changes", "setting": "CYT fraction", "result": 0.157}, {"measurement": "GO BP Positive regulation of DNA-templated transcription, summed fold-changes", "setting": "CYT fraction", "result": -4.1}, {"measurement": "GO BP Proteasome-mediated ubiquitin-dependent protein catabolic process, summed fold-changes", "setting": "CYT fraction", "result": 0.556}, {"measurement": "GO BP Protein folding, summed fold-changes", "setting": "CYT fraction", "result": 0.665}, {"measurement": "GO BP Protein stabilization, summed fold-changes", "setting": "CYT fraction", "result": 1.4}, {"measurement": "GO BP Protein transport, summed fold-changes", "setting": "CYT fraction", "result": -4.1}, {"measurement": "GO BP Purine nucleotide biosynthetic process, summed fold-changes", "setting": "CYT fraction", "result": -1.4}, {"measurement": "GO BP RNA splicing, summed fold-changes", "setting": "CYT fraction", "result": 2.7}, {"measurement": "GO BP Regulation of apoptotic process, summed fold-changes", "setting": "CYT fraction", "result": -0.9}, {"measurement": "GO BP Regulation of cell fate specification, summed fold-changes", "setting": "CYT fraction", "result": -2.6}, {"measurement": "GO BP Regulation of double-strand break repair, summed fold-changes", "setting": "CYT fraction", "result": -0.5}, {"measurement": "GO BP Regulation of stem cell differentiation, summed fold-changes", "setting": "CYT fraction", "result": -2.1}, {"measurement": "GO BP Response to oxidative stress, summed fold-changes", "setting": "CYT fraction", "result": -2.8}, {"measurement": "GO BP Ribosomal small subunit biogenesis, summed fold-changes", "setting": "CYT fraction", "result": 3.8}, {"measurement": "GO BP Ribosome biogenesis, summed fold-changes", "setting": "CYT fraction", "result": 1.0}, {"measurement": "GO BP Ubiquitin-dependent protein catabolic process, summed fold-changes", "setting": "CYT fraction", "result": -4.3}, {"measurement": "GO BP Vesicle-mediated transport, summed fold-changes", "setting": "CYT fraction", "result": -2.0}, {"measurement": "GO BP mRNA processing, summed fold-changes", "setting": "CYT fraction", "result": 2.8}, {"measurement": "GO BP mRNA splicing, via spliceosome, summed fold-changes", "setting": "CYT fraction", "result": 5.8}, {"measurement": "GO BP mRNA transport, summed fold-changes", "setting": "CYT fraction", "result": 3.1}, {"measurement": "GO BP rRNA processing, summed fold-changes", "setting": "CYT fraction", "result": 6.9}, {"measurement": "GO CC Azurophil granule lumen, summed fold-changes", "setting": "CYT fraction", "result": -3.8}, {"measurement": "GO CC Chromatin, summed fold-changes", "setting": "CYT fraction", "result": -3.8}, {"measurement": "GO CC Chromosome, centromeric region, summed fold-changes", "setting": "CYT fraction", "result": 2.2}, {"measurement": "GO CC Chromosome, summed fold-changes", "setting": "CYT fraction", "result": 0.0303}, {"measurement": "GO CC Chromosome, telomeric region, summed fold-changes", "setting": "CYT fraction", "result": -5.4}, {"measurement": "GO CC Condensin complex, summed fold-changes", "setting": "CYT fraction", "result": 1.7}, {"measurement": "GO CC Cytoskeleton, summed fold-changes", "setting": "CYT fraction", "result": 2.2}, {"measurement": "GO CC Endosome, summed fold-changes", "setting": "CYT fraction", "result": -2.0}, {"measurement": "GO CC Extracellular exosome, summed fold-changes", "setting": "CYT fraction", "result": -48.5}, {"measurement": "GO CC Fibrillar center, summed fold-changes", "setting": "CYT fraction", "result": 1.3}, {"measurement": "GO CC Ficolin-1-rich granule lumen, summed fold-changes", "setting": "CYT fraction", "result": -4.9}, {"measurement": "GO CC Focal adhesion, summed fold-changes", "setting": "CYT fraction", "result": -5.9}, {"measurement": "GO CC Intracellular membrane-bounded organelle, summed fold-changes", "setting": "CYT fraction", "result": -2.0}, {"measurement": "GO CC Kinetochore, summed fold-changes", "setting": "CYT fraction", "result": 1.6}, {"measurement": "GO CC Lipid droplet, summed fold-changes", "setting": "CYT fraction", "result": -1.3}, {"measurement": "GO CC Lysosome, summed fold-changes", "setting": "CYT fraction", "result": -2.9}, {"measurement": "GO CC Microtubule cytoskeleton, summed fold-changes", "setting": "CYT fraction", "result": 1.6}, {"measurement": "GO CC Mitochondrion, summed fold-changes", "setting": "CYT fraction", "result": -13.5}, {"measurement": "GO CC Nuclear envelope, summed fold-changes", "setting": "CYT fraction", "result": -0.6}, {"measurement": "GO CC Nuclear speck, summed fold-changes", "setting": "CYT fraction", "result": 3.4}, {"measurement": "GO CC Nucleolus, summed fold-changes", "setting": "CYT fraction", "result": 1.4}, {"measurement": "GO CC Nucleoplasm, summed fold-changes", "setting": "CYT fraction", "result": -8.6}, {"measurement": "GO CC Nucleus, summed fold-changes", "setting": "CYT fraction", "result": -23.5}, {"measurement": "GO CC Proteasome complex, summed fold-changes", "setting": "CYT fraction", "result": 0.475}, {"measurement": "GO CC Protein-containing complex, summed fold-changes", "setting": "CYT fraction", "result": -2.9}, {"measurement": "GO CC Ribonucleoprotein complex, summed fold-changes", "setting": "CYT fraction", "result": 3.1}, {"measurement": "GO CC SCAR complex, summed fold-changes", "setting": "CYT fraction", "result": 0.9}, {"measurement": "GO CC Small-subunit processome, summed fold-changes", "setting": "CYT fraction", "result": 4.9}, {"measurement": "GO CC Spliceosomal complex, summed fold-changes", "setting": "CYT fraction", "result": 2.7}, {"measurement": "GO CC Transcription repressor complex, summed fold-changes", "setting": "CYT fraction", "result": -2.7}, {"measurement": "GO CC Vesicle, summed fold-changes", "setting": "CYT fraction", "result": -2.7}, {"measurement": "KEGG pathway ATP-dependent chromatin remodeling, summed fold-changes", "setting": "CYT fraction", "result": -1.8}, {"measurement": "KEGG pathway Apoptosis, summed fold-changes", "setting": "CYT fraction", "result": 2.5}, {"measurement": "KEGG pathway Basal transcription factors, summed fold-changes", "setting": "CYT fraction", "result": -1.0}, {"measurement": "KEGG pathway Biosynthesis of amino acids, summed fold-changes", "setting": "CYT fraction", "result": -5.4}, {"measurement": "KEGG pathway Biosynthesis of cofactors, summed fold-changes", "setting": "CYT fraction", "result": 2.8}, {"measurement": "KEGG pathway Cell cycle, summed fold-changes", "setting": "CYT fraction", "result": -3.3}, {"measurement": "KEGG pathway Nucleocytoplasmic transport, summed fold-changes", "setting": "CYT fraction", "result": 0.8}, {"measurement": "KEGG pathway Polycomb repressive complex, summed fold-changes", "setting": "CYT fraction", "result": -2.9}, {"measurement": "KEGG pathway Proteasome, summed fold-changes", "setting": "CYT fraction", "result": -0.152}, {"measurement": "KEGG pathway Ribosome biogenesis in eukaryotes, summed fold-changes", "setting": "CYT fraction", "result": 1.9}, {"measurement": "GO BP Cell cycle, summed fold-changes", "setting": "NE fraction", "result": 26.1}, {"measurement": "GO BP Cell division, summed fold-changes", "setting": "NE fraction", "result": 26.9}, {"measurement": "GO BP Chromatin organization, summed fold-changes", "setting": "NE fraction", "result": 28.0}]}]}
